Laboratory results from PubChem BioAssay (NCI).
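96-well plates; 48 h exposure; 5 concentrations. Endpoints by linear interpolation between flanking doses. Not reached: highest tested concentration assigned. The concentration for 50% growth inhibition is given as GI50. TGI is the concentration that stops growth completely.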

Columns and labels:
Experiment in all cases: NCI tumour cell line growth inhibition, 48 h
786-0 renal = system: 786-0 renal
A498 renal = system: A498 renal
ACHN renal = system: ACHN renal
CCRF-CEM leukemia = system: CCRF-CEM leukemia
COLO 205 colon = system: COLO 205 colon
HCC-2998 colon = system: HCC-2998 colon
HCT-116 colon = system: HCT-116 colon
HCT-15 colon = system: HCT-15 colon
HL-60(TB) leukemia = system: HL-60(TB) leukemia
HT29 colon = system: HT29 colon
K-562 leukemia = system: K-562 leukemia
LOX IMVI melanoma = system: LOX IMVI melanoma
MDA-N = system: MDA-N
MOLT-4 leukemia = system: MOLT-4 leukemia
NCI-H23 lung = system: NCI-H23 lung
NCI/ADR-RES ovarian = system: NCI/ADR-RES ovarian
OVCAR-5 ovarian = system: OVCAR-5 ovarian
PC-3 prostate = system: PC-3 prostate
RPMI-8226 leukemia = system: RPMI-8226 leukemia
RXF 393 renal = system: RXF 393 renal
SF-268 CNS = system: SF-268 CNS
SF-539 CNS = system: SF-539 CNS
SK-MEL-2 melanoma = system: SK-MEL-2 melanoma
SK-MEL-28 melanoma = system: SK-MEL-28 melanoma
SK-OV-3 ovarian = system: SK-OV-3 ovarian
SN12C renal = system: SN12C renal
SNB-19 CNS = system: SNB-19 CNS
SNB-75 CNS = system: SNB-75 CNS
SR leukemia = system: SR leukemia
U251 CNS = system: U251 CNS
UACC-257 melanoma = system: UACC-257 melanoma
UO-31 renal = system: UO-31 renal
A549 NSCLC = system: A549 NSCLC
BT-549 breast = system: BT-549 breast
CAKI-1 renal = system: CAKI-1 renal
DU-145 prostate = system: DU-145 prostate
EKVX NSCLC = system: EKVX NSCLC
HOP-62 NSCLC = system: HOP-62 NSCLC
HOP-92 NSCLC = system: HOP-92 NSCLC
HS 578T breast = system: HS 578T breast
IGROV1 ovarian = system: IGROV1 ovarian
KM12 colon = system: KM12 colon
M14 melanoma = system: M14 melanoma
MALME-3M melanoma = system: MALME-3M melanoma
MCF7 breast = system: MCF7 breast
MDA-MB-231 breast = system: MDA-MB-231 breast
MDA-MB-435 = system: MDA-MB-435
NCI-H226 lung = system: NCI-H226 lung
NCI-H460 lung = system: NCI-H460 lung
NCI-H522 lung = system: NCI-H522 lung
OVCAR-3 ovarian = system: OVCAR-3 ovarian
OVCAR-8 ovarian = system: OVCAR-8 ovarian
SF-295 CNS = system: SF-295 CNS
SK-MEL-5 melanoma = system: SK-MEL-5 melanoma
SW-620 colon = system: SW-620 colon
T-47D breast = system: T-47D breast
TK-10 renal = system: TK-10 renal
UACC-62 melanoma = system: UACC-62 melanoma

## CCOC(=O)C(O)(NC(=O)NC(O)(C(=O)OCC)C(F)(F)F)C(F)(F)F (centres undefined)
786-0 renal
  TGI: > 100000 nM
A498 renal
  TGI: > 100000 nM
ACHN renal
  TGI: > 100000 nM
CCRF-CEM leukemia
  TGI: > 100000 nM
COLO 205 colon
  TGI: > 100000 nM
HCC-2998 colon
  TGI: > 100000 nM
HCT-116 colon
  TGI: > 100000 nM
HCT-15 colon
  TGI: > 100000 nM
HL-60(TB) leukemia
  TGI: > 100000 nM
HT29 colon
  TGI: > 100000 nM
K-562 leukemia
  TGI: > 100000 nM
LOX IMVI melanoma
  TGI: > 100000 nM
MDA-N
  TGI: > 100000 nM
MOLT-4 leukemia
  TGI: > 100000 nM
NCI-H23 lung
  TGI: > 100000 nM
NCI/ADR-RES ovarian
  TGI: > 100000 nM
OVCAR-5 ovarian
  TGI: > 100000 nM
PC-3 prostate
  TGI: > 100000 nM
RPMI-8226 leukemia
  TGI: > 100000 nM
RXF 393 renal
  TGI: > 100000 nM
SF-268 CNS
  TGI: > 100000 nM
SF-539 CNS
  TGI: > 100000 nM
SK-MEL-2 melanoma
  TGI: > 100000 nM
SK-MEL-28 melanoma
  TGI: > 100000 nM
SK-OV-3 ovarian
  TGI: > 100000 nM
SN12C renal
  TGI: > 100000 nM
SNB-19 CNS
  TGI: > 100000 nM
SNB-75 CNS
  TGI: > 100000 nM
SR leukemia
  TGI: > 100000 nM
U251 CNS
  TGI: > 100000 nM
UACC-257 melanoma
  TGI: > 100000 nM
UO-31 renal
  TGI: > 100000 nM

## CCOC(=O)c1cc(C(=O)c2cc(OC)c(OC)c(OC)c2)n2ccccc12
786-0 renal
  GI50: 739 nM
  TGI: > 42700 nM
A498 renal
  GI50: 26.9 nM
  TGI: 9550 nM
A549 NSCLC
  GI50: 134 nM
  TGI: > 100000 nM
ACHN renal
  GI50: 10100 nM
  TGI: > 100000 nM
BT-549 breast
  GI50: 59.7 nM
  TGI: > 100000 nM
CAKI-1 renal
  GI50: 150 nM
  TGI: > 100000 nM
CCRF-CEM leukemia
  GI50: 106 nM
  TGI: > 100000 nM
COLO 205 colon
  GI50: 58.8 nM
  TGI: 2570 nM
DU-145 prostate
  GI50: 175 nM
  TGI: > 100000 nM
EKVX NSCLC
  GI50: 342 nM
  TGI: > 100000 nM
HCC-2998 colon
  GI50: 370 nM
  TGI: > 100000 nM
HCT-116 colon
  GI50: 35.3 nM
  TGI: > 100000 nM
HCT-15 colon
  GI50: 56.5 nM
  TGI: > 100000 nM
HL-60(TB) leukemia
  GI50: 58.6 nM
HOP-62 NSCLC
  GI50: 241 nM
  TGI: > 67900 nM
HOP-92 NSCLC
  GI50: 25600 nM
  TGI: > 100000 nM
HS 578T breast
  GI50: 123 nM
  TGI: 46600 nM
HT29 colon
  GI50: 42.5 nM
  TGI: > 100000 nM
IGROV1 ovarian
  GI50: 2960 nM
  TGI: > 100000 nM
K-562 leukemia
  GI50: 50.1 nM
  TGI: > 100000 nM
KM12 colon
  GI50: 74.4 nM
  TGI: > 100000 nM
LOX IMVI melanoma
  GI50: 133 nM
  TGI: > 100000 nM
M14 melanoma
  GI50: 37.7 nM
  TGI: 388 nM
MALME-3M melanoma
  GI50: 1060 nM
  TGI: > 100000 nM
MCF7 breast
  GI50: 60.6 nM
  TGI: > 100000 nM
MDA-MB-231 breast
  GI50: 2810 nM
  TGI: > 100000 nM
MDA-MB-435
  GI50: < 18.2 nM
  TGI: 205 nM
MOLT-4 leukemia
  GI50: 182 nM
  TGI: > 100000 nM
NCI-H226 lung
  GI50: 19300 nM
  TGI: > 100000 nM
NCI-H23 lung
  GI50: 340 nM
  TGI: > 100000 nM
NCI-H460 lung
  GI50: 77.2 nM
  TGI: > 100000 nM
NCI-H522 lung
  GI50: 57.7 nM
  TGI: > 37100 nM
NCI/ADR-RES ovarian
  GI50: 52.3 nM
  TGI: 2750 nM
OVCAR-3 ovarian
  GI50: 33.4 nM
  TGI: 4110 nM
OVCAR-5 ovarian
  GI50: 813 nM
  TGI: > 100000 nM
OVCAR-8 ovarian
  GI50: 259 nM
  TGI: > 100000 nM
PC-3 prostate
  GI50: 105 nM
  TGI: > 100000 nM
RPMI-8226 leukemia
  GI50: 121 nM
  TGI: > 100000 nM
RXF 393 renal
  GI50: 70 nM
  TGI: 707 nM
SF-268 CNS
  GI50: 1120 nM
  TGI: > 100000 nM
SF-295 CNS
  GI50: 55.8 nM
  TGI: 14600 nM
SF-539 CNS
  GI50: 103 nM
  TGI: 863 nM
SK-MEL-2 melanoma
  GI50: 169 nM
  TGI: > 74800 nM
SK-MEL-28 melanoma
  GI50: 6090 nM
  TGI: > 100000 nM
SK-MEL-5 melanoma
  GI50: 40.9 nM
  TGI: > 100000 nM
SK-OV-3 ovarian
  GI50: 164 nM
  TGI: > 100000 nM
SN12C renal
  GI50: 1170 nM
  TGI: > 100000 nM
SNB-19 CNS
  GI50: 206 nM
  TGI: > 100000 nM
SNB-75 CNS
  GI50: 46.1 nM
  TGI: 21500 nM
SR leukemia
  GI50: 41 nM
  TGI: > 100000 nM
SW-620 colon
  GI50: 50.4 nM
  TGI: > 100000 nM
T-47D breast
  GI50: 1140 nM
  TGI: > 100000 nM
TK-10 renal
  GI50: 11600 nM
  TGI: > 100000 nM
U251 CNS
  GI50: 89.9 nM
  TGI: 38600 nM
UACC-257 melanoma
  GI50: 35100 nM
  TGI: > 100000 nM
UACC-62 melanoma
  GI50: 43.9 nM
  TGI: > 100000 nM
UO-31 renal
  TGI: > 100000 nM
